From US20230159510A1, “NOVEL PRMT5 INHIBITORS” (AMGEN INC., priority 2020, published 2023)
Read-outs that look alike come from different tables or passages of the source.

Legend:
PRMT5/MEP50 = PRMT5/MEP50 (Homo sapiens, UniProt O14744); test: MTase-Glo methyl transferase assay, Method B (FL-Histone H2A, 1 µM MTA, 1 h pre-incubation); type: biochemical; parameters: purchased Reaction Biology Corp RD-11-292; conditions: read-out: PRMT5 MTase Glo Ki (nM, Meth. B)
Experimental: Method B: The PRMT5 inhibitory activity of test compounds was determined using the MTase-Glo™ assay (Promega), which monitors the product (S-adenosyl homocysteine or SAH) of methyltransferase reactions. The PRMT5 MTase-Glo assay was conducted in a 384-well white ProxiPlate (PerkinElmer) in a total volume of 16 µL. The PRMT5 enzymatic reaction (in 8 µL) contained 4 nM PRMT5/MEP50 (Reaction Biology Corp, catalog no.: RD-11-292), 5 µM S-adenosyl methionine (SAM, Promega), 2.5 µM FL-Histone H2A (BPS Bioscience, catalog no.: 52021), 1 µM 5′-methylthioadenosine (MTA, Sigma) and ½ log serially diluted compounds in a reaction buffer of 50 mM Tris (pH 8.0), 50 mM NaCl, 0.01% Tween 20, 0.01% BSA, and 1 mM TCEP. Test compounds were pre-incubated with PRMT5/MEP50, SAM, and MTA for 1 hour before addition of FL-Histone H2A to initiate the PRMT5 reaction. The reaction was allowed to proceed for 20 hours at room temperature and was then terminated by addition of 1 µL of 9X MTase-Glo™ Reagent (Promega). After a 30-minute incubation at room temperature, 8 µL of MTase-Glo™ Detection Solution (Promega) was added and the plate was incubated at room temperature for an additional 30 minutes. The light signal corresponding to the amount of SAH produced by the PRMT5 reaction was subsequently measured using an Envision multimode reader (PerkinElmer). IC50 and KI values were obtained by analyzing dose-response curves using GraphPad Prism®.

HCT116 MTAP null cells = test: HCT116 proliferation assay, MTAP null cells (CellTiter-Glo, 6 days); type: cell-based; conditions: read-out: Protif_ HCT116-MTAP null IC50
Procedure, shortened: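 Cells grown in RPMI 1640 + 10% FBS, plated overnight, then exposed for 6 days to 8- or 9-point 1:3 compound dilutions (top 1 or 10 µM) with DMSO control. Viability read by CellTiter-Glo luminescence.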

PRMT5/MEP50, sequence (O14744 2-637 limits assumed): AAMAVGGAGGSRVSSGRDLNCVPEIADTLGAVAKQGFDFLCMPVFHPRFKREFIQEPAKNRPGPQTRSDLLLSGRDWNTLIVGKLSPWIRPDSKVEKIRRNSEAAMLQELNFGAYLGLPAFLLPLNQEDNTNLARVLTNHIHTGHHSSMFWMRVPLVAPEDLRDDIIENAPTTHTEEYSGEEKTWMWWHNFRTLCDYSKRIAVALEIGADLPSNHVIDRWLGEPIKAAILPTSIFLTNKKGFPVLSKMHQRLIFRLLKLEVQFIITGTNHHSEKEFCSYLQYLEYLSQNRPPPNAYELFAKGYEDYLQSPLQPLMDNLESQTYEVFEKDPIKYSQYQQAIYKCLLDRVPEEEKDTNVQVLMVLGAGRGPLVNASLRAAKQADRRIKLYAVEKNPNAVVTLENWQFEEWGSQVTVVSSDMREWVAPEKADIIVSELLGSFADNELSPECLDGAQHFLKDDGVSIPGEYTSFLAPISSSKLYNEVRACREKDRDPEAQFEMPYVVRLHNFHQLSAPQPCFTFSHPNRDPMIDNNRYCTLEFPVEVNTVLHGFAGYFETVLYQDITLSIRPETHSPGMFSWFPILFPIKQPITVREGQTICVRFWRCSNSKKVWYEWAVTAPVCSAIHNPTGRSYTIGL
PRMT5/MEP50, sequence (Q9BQA1 2-342 partner limits assumed): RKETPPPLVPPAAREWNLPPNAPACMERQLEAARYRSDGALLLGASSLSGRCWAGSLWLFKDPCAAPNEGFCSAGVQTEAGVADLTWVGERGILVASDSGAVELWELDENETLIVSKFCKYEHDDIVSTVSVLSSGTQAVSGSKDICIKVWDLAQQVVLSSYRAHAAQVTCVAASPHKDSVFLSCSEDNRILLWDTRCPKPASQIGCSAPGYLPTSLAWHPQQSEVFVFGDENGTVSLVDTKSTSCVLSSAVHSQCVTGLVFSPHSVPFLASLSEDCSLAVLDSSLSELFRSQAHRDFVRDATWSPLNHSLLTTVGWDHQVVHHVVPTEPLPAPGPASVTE

Row | Ki (PRMT5/MEP50) [nM] | IC50 (HCT116 MTAP null cells; HCT116-MTAP null, 144 h) [µM] | SMILES | IC50 (HCT116 MTAP null cells) [µM]
1 | 2.55 | 0.086 | Cc1cc2cc(C(=O)N(Cc3ccc(C(F)(F)F)cn3)C(C)C(C)C)ccc2nc1N (stereo not shown) [Example 642, 2-amino-N-(1,2-dimethylpropyl)-3-methyl-N-[[5-(trifluoromethyl)-2-pyridyl]methyl] quinoline-6-carboxamide] | –
2 | 2.69 | 0.31 | Cc1cc2cc(C(=O)N(Cc3cccc(-n4cncn4)c3)Cc3ccc(C(F)(F)F)cn3)ccc2nc1N [Example 649, 2-amino-3-methyl-N-[[3-(1,2,4-triazol-1-yl)phenyl]methyl]-N-[[5-(trifluoromethyl)-2-pyridyl]methyl] quinoline-6-carboxamide] | –
3 | 5.12 | 0.59 | Cc1cc2cc(C(=O)N(Cc3ccc(C(F)(F)F)cn3)Cc3ccnn3C)ccc2nc1N [Example 686, 2-amino-3-methyl-N-[(2-methylpyrazol-3-yl)methyl]-N-[[5-(trifluoromethyl)-2-pyridyl]methyl] quinoline-6-carboxamide] | –
4 | 9.1 | 0.67 | Cc1cc2cc(C(=O)N(Cc3ccc(C(F)(F)F)cn3)C(C)c3cc[nH]c(=O)c3)ccc2nc1N (stereo not shown) [Example 664, 2-amino-3-methyl-N-[1-(2-oxo-1H-pyridin-4-yl)ethyl]-N-[[5-(trifluoromethyl)-2-pyridyl]methyl] quinoline-6-carboxamide] | –
5 | 1.29 | – | Cc1cc2cc(C(=O)N(Cc3ccc(C(F)(F)F)cn3)Cc3ccnc4[nH]ccc34)cnc2nc1N [Example 635, 7-amino-6-methyl-N-(1H-pyrrolo[2,3-b]pyridin-4-ylmethyl)-N-[[5-(trifluoromethyl)-2-pyridyl]methyl]-1,8-naphthyridine-3-carboxamide] | 0.018
6 | 5.57 | 0.5 | Cc1cc2cc(C(=O)N(Cc3ccc(C(F)(F)F)cn3)CC3CCCC(O)C3)ccc2nc1N (stereo not shown) [Example 678, 2-amino-N-[(3-hydroxycyclohexyl)methyl]-3-methyl-N-[[5-(trifluoromethyl)-2-pyridyl]methyl] quinoline-6-carboxamide] | –
7 | 3.58 | 0.18 | Cc1cc2cc(C(=O)N(Cc3ccc(O)c(F)c3)Cc3ccc(C(F)(F)F)cn3)ccc2nc1N [Example 662, 2-amino-N-[(3-fluoro-4-hydroxyphenyl)methyl] -3-methyl-N-[ [5-(trifluoromethyl)-2-pyridyl]methyl] quinoline-6-carboxamide] | –
8 | 1.99 | 0.18 | Cc1cc2cc(C(=O)N(Cc3ccc(C(F)(F)F)cn3)C(C)c3ccc4c(c3)NC(=O)CO4)ccc2nc1N (stereo not shown) [Example 625, 2-amino-3-methyl-N-(1-(3-oxo-3,4-dihydro-2H-benzo[b][1,4]oxazin-6-yl)ethyl)-N-((5-(trifluoromethyl)pyridin-2-yl)methyl)quinoline-6-carboxamide] | –
9 | 9.17 | 0.68 | Cc1cc2cc(C(=O)N(Cc3cc(Br)ccn3)CC(C)C)ccc2nc1N [Example 665, 2-amino-N-[(4-bromo-2-pyridyl)methyl]-N-isobutyl-3-methylquinoline-6-carboxamide] | –
10 | 5.34 | 0.62 | CC#CCN(Cc1ccc(C(F)(F)F)cn1)C(=O)c1ccc2nc(N)c(C)cc2c1 [Example 657, 2-amino-N-but-2-ynyl-3-methyl-N-[[5-(trifluoromethyl)-2-pyridyl]methyl] quinoline-6-carboxamide] | –
11 | 1.81 | 0.069 | Cc1cc2cc(C(=O)N(Cc3ccc(O)cc3)Cc3ccc(C(F)(F)F)cn3)ccc2nc1N [Example 661, 2-amino-N-[(4-hydroxyphenyl)methyl]-3-methyl-N-[[5-(trifluoromethyl)-2-pyridyl]methyl] quinoline-6-carboxamide] | –
12 | 1.9 | 0.2 | CNC(=O)c1ccc(CN(Cc2ccc(C(F)(F)F)cn2)C(=O)c2ccc3nc(N)c(C)cc3c2)cc1 [Example 638, 2-amino-3-methyl-N-[[4-(methylcarbamoyl)phenyl]methyl]-N-[[5-(trifluoromethyl)-2-pyridyl]methyl] quinoline-6-carboxamide] | –
13 | 2.94 | 0.33 | Cc1cc2cc(C(=O)N(Cc3ccc[nH]3)Cc3ccnc4[nH]ccc34)ccc2nc1N [Example 689, 2-amino-3-methyl-N-(1H-pyrrolo[2,3-b]pyridin-4-ylmethyl)-N-(1H-pyrrol-2-ylmethyl)quinoline-6-carboxamide] | –
14 | 7.14 | 0.8 | Cc1cc2cc(C(=O)N(Cc3ccc(C(O)C(F)(F)F)cc3)Cc3ccc(C(F)(F)F)cn3)ccc2nc1N (stereo not shown) [Example 660, 2-amino-3-methyl-N-[ [4-(2,2,2-trifluoro-1-hydroxyethyl)phenyl]methyl]-N-[[5-(trifluoromethyl)-2-pyridyl]methyl] quinoline-6-carboxamide] | –
15 | 8.5 | 0.82 | Cc1cc2cc(C(=O)N(Cc3ccc(C(F)(F)F)cn3)C3CCC4CCCC4C3)ccc2nc1N (stereo not shown) [Example 669, N-(2,3,3a,4,5,6,7,7a-octahydro-1H-inden-5-yl)-2-amino-3-methyl-N-[[5-(trifluoromethyl)-2-pyridyl]methyl] quinoline-6-carboxamide] | –
16 | 6.14 | 0.097 | Cc1cc2cc(C(=O)N(Cc3ccc(C(F)(F)F)cn3)C(C)CC#N)ccc2nc1N (stereo not shown) [Example 693, 2-amino-N-(2-cyano-1-methyl-ethyl)-3-methyl-N-[[5-(trifluoromethyl)-2-pyridyl]methyl] quinoline-6-carboxamide] | –
17 | 2.3 | 0.89 | Cc1cc2cc(C(=O)N(Cc3ccc4c(c3)CNC4=O)Cc3ccc(C(F)(F)F)cn3)ccc2nc1N [Example 636, 2-amino-3-methyl-N-[(1-oxoisoindolin-5-yl)methyl]-N-[[5-(trifluoromethyl)-2-pyridyl]methyl] quinoline-6-carboxamide] | –
18 | 7.14 | 0.028 | Cc1cc2cc(C(=O)N(Cc3ccc(C(F)(F)F)cn3)C3CCCc4c[nH]nc43)ccc2nc1N (stereo not shown) [Example 631, 2-amino-3-methyl-N-(4,5,6,7-tetrahydro-2H-indazol-7-yl)-N-[[5-(trifluoromethyl)-2-pyridyl]methyl] quinoline-6-carboxamide] | –
19 | 5.3 | 0.34 | Cc1cc2cc(C(=O)N(Cc3ccc(C(F)(F)F)cn3)C(C)C3CCCO3)ccc2nc1N (stereo not shown) [Example 632, 2-amino-3-methyl-N-(1-tetrahydrofuran-2-ylethyl)-N-[[5-(trifluoromethyl)-2-pyridyl]methyl] quinoline-6-carboxamide] | –
20 | 4.8 | 0.33 | Cc1cc2cc(C(=O)N(Cc3ccc(C(F)(F)F)cn3)C3CCCC4OCCC43)ccc2nc1N (stereo not shown) [Example 633, N-(2,3,3a,4,5,6,7,7a-octahydrobenzofuran-4-yl)-2-amino-3-methyl-N-[[5-(trifluoromethyl)-2-pyridyl]methyl] quinoline-6-carboxamide] | –
21 | 3 to 7 | 0.16 | Cc1cc2cc(C(=O)N(Cc3ccc(C(F)(F)F)cn3)Cc3cccnc3-n3cncn3)ccc2nc1N [Example 652, 2-amino-3-methyl-N-[[2-(1,2,4-triazol-1-yl)-3-pyridyl]methyl]-N-[[5-(trifluoromethyl)-2-pyridyl]methyl] quinoline-6-carboxamide] | –
22 | 14.1 | 0.73 | Cc1cc2cc(C(=O)N(Cc3ncccc3Br)CC(C)C)ccc2nc1N [Example 640, 2-amino-N-[(3-bromo-2-pyridyl)methyl] -N-isobutyl-3-methylquinoline-6-carboxamide] | –
23 | 5.93 | 0.77 | Cc1cc2cc(C(=O)N(CCC3CCC3)Cc3ccc(C(F)(F)F)cn3)ccc2nc1N [Example 629, 2-amino-N-(2-cyclobutylethyl)-3-methyl-N-((5-(trifluoromethyl)pyridin-2-yl)methyl)quinoline-6-carboxamide] | –
24 | 5.61 | 0.25 | Cc1cc2cc(C(=O)N(Cc3ccc(C(F)(F)F)cn3)Cc3ccccc3-n3cccn3)ccc2nc1N [Example 654, 2-amino-3-methyl-N-[(2-pyrazol-1-ylphenyl)methyl]-N-[[5-(trifluoromethyl)-2-pyridyl]methyl] quinoline-6-carboxamide] | –
25 | 1.7 | 0.037 | Cc1cc2cc(C(=O)N(Cc3ccc(C(F)(F)F)cn3)C(C)c3cccc(O)c3)ccc2nc1N (stereo not shown) [Example 663, 2-amino-N-[1-(3-hydroxyphenyl)ethyl] -3-methyl-N-[[5-(trifluoromethyl)-2-pyridyl]methyl] quinoline-6-carboxamide] | –

Row | SMILES | Ki (PRMT5/MEP50) [nM] | IC50 (HCT116 MTAP null cells; HCT116-MTAP null, 144 h) [µM] | IC50 (HCT116 MTAP null cells) [µM]
26 | Cc1cc2cc(C(=O)N(Cc3ccc(C(F)(F)F)cc3)Cc3c(F)cncc3F)ccc2nc1N [Example 685, 2-amino-N-[(3,5-difluoro-4-pyridyl)methyl]-3-methyl-N-[[4-(trifluoromethyl)phenyl]methyl] quino line-6-carboxamide] | 1.22 | – | 0.051
